Results from PubChem BioAssay (NCI).
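In this assay, cells in 96-well plates receive the compound at five concentrations for 48 hours. Endpoints are linearly interpolated between the surrounding concentrations. The concentration for 50% growth inhibition is given as GI50. At the TGI there is no net growth.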

Columns and labels:
Experiment in all cases: NCI anticancer screen, dose series, 48 h
HOP-92 NSCLC = test system: HOP-92 NSCLC
U251 CNS = test system: U251 CNS
HCC-2998 colon = test system: HCC-2998 colon
COLO 205 colon = test system: COLO 205 colon
SK-MEL-28 melanoma = test system: SK-MEL-28 melanoma
SW-620 colon = test system: SW-620 colon
SNB-75 CNS = test system: SNB-75 CNS
SN12C renal = test system: SN12C renal
OVCAR-3 ovarian = test system: OVCAR-3 ovarian
M14 melanoma = test system: M14 melanoma

| SMILES | GI50 (HOP-92 NSCLC) | TGI (HOP-92 NSCLC) | GI50 (U251 CNS) | TGI (U251 CNS) | GI50 (HCC-2998 colon) | TGI (HCC-2998 colon) | GI50 (COLO 205 colon) | TGI (COLO 205 colon) | GI50 (SK-MEL-28 melanoma) | TGI (SK-MEL-28 melanoma) | GI50 (SW-620 colon) | TGI (SW-620 colon) | GI50 (SNB-75 CNS) | TGI (SNB-75 CNS) | GI50 (SN12C renal) | TGI (SN12C renal) | GI50 (OVCAR-3 ovarian) | TGI (OVCAR-3 ovarian) | GI50 (M14 melanoma) | TGI (M14 melanoma) |
| --- | --- | --- | --- | --- | --- | --- | --- | --- | --- | --- | --- | --- | --- | --- | --- | --- | --- | --- | --- | --- |
| COc1cc(-c2nc3ccccc3o2)cc(CN2CCCCC2)c1O | 27 µM | > 100 µM | 1.84 µM | 9.54 µM | 4.73 µM | 22.4 µM | 2.38 µM | 4.6 µM | 1.97 µM | 4.12 µM | 1.92 µM | 8.13 µM | 2.3 µM | 4.76 µM | 1.5 µM | 4.25 µM | 2.75 µM | 39.7 µM | 1.48 µM | 3.26 µM |
| Cc1c2ccncc2c(C)c2c1sc1ccccc12 |  | 28.5 µM |  | 23.8 µM |  | 25.9 µM |  | 26.9 µM |  | 32.7 µM |  | 22.1 µM |  | 36.5 µM |  | 23.8 µM |  | 29.6 µM |  | 26.4 µM |
| O=C(/C=C/c1ccccn1)c1ccc(OCc2nnc(-c3ccc(Cl)cc3)o2)cc1 | 2.35 µM | 6.33 µM | 1.64 µM | 3.05 µM | 1.8 µM | 3.26 µM | 2.23 µM | 4.39 µM | 1.77 µM | 3.36 µM | 1.91 µM | 3.93 µM | 1.46 µM | 2.89 µM | 2.41 µM | 5.8 µM | 1.73 µM | 3.25 µM | 1.99 µM | 3.87 µM |
| Cc1ccc(N=C2N=C(N3CC(C)OC(C)C3)c3ccccc32)cc1 (stereo not given) |  | 26.5 µM |  | > 100 µM |  | 79.5 µM |  | > 100 µM |  | 87.2 µM |  | > 100 µM |  | 88.5 µM |  | > 100 µM |  | 73.4 µM |  | 56.5 µM |
| COc1ccc(-c2cn(-c3ccc(OC)c(OC)c3)c(=O)[nH]2)cc1 | > 100 µM | > 100 µM | > 100 µM | > 100 µM | > 100 µM | > 100 µM | > 100 µM | > 100 µM | > 100 µM | > 100 µM | > 100 µM | > 100 µM | 24.6 µM | 98.7 µM | > 100 µM | > 100 µM | > 100 µM | > 100 µM | > 100 µM | > 100 µM |
| C[N+](C)(C)c1cc[c]([Sn]([c]2ccc([N+](C)(C)C)cc2)([c]2ccc([N+](C)(C)C)cc2)[c]2ccc([N+](C)(C)C)cc2)cc1 | > 100 µM | > 100 µM | > 100 µM | > 100 µM | > 100 µM | > 100 µM | > 100 µM | > 100 µM | > 100 µM | > 100 µM | > 100 µM | > 100 µM | > 100 µM | > 100 µM | > 100 µM | > 100 µM | > 100 µM | > 100 µM | > 100 µM | > 100 µM |
| Cn1cc(C2=C(c3cn(CCCN)c4ccccc34)C(=O)NC2=O)c2ccccc21 | 8.26 µM | 17.6 µM | 5.01 µM | 11.5 µM | 5.84 µM | 16.2 µM | 3.27 µM | 7.06 µM | 4.7 µM | 9.3 µM | 4.38 µM | 9.37 µM | 0.998 µM | 5.35 µM | 4.67 µM | 18.6 µM | 5.86 µM | 16.2 µM | 4.38 µM | 8.6 µM |
| COc1ccc(O)cc1C(O)c1ccccc1 (stereo not given) |  | > 100 µM |  | > 100 µM |  | > 100 µM |  | > 100 µM |  | > 100 µM |  | > 100 µM |  | > 100 µM |  | > 100 µM |  | > 100 µM |  | > 100 µM |
| Cc1nc2sc3c(N)ncnc3c2c(C)c1C | > 25 µM | > 25 µM | > 25 µM | > 25 µM | > 25 µM | > 25 µM | > 25 µM | > 25 µM | > 25 µM | > 25 µM | > 25 µM | > 25 µM | > 25 µM | > 25 µM | > 25 µM | > 25 µM | > 25 µM | > 25 µM | > 25 µM | > 25 µM |
| Cn1c(=O)c(Oc2ccc(F)cc2F)cc2cnc(N[C@@H]3CCOC3)nc21 | 8.69 µM | > 25 µM | > 25 µM | > 25 µM | > 25 µM | > 25 µM | > 25 µM | > 25 µM | > 25 µM | > 25 µM | > 25 µM | > 25 µM | > 25 µM | > 25 µM | > 25 µM | > 25 µM | > 25 µM | > 25 µM | > 25 µM | > 25 µM |
| Clc1ccc2c(c1)N(C1CCCN(Cc3ccccc3)C1)c1ccccc1S2 (stereo not given) | 4.68 µM | 74.2 µM | 4.31 µM | > 100 µM | 5.59 µM | 32.3 µM | 2.9 µM | 10.1 µM | 7.69 µM | > 100 µM | 2.98 µM | 32.5 µM | 4.11 µM | > 100 µM | 5.79 µM | > 100 µM | 3.27 µM | 24.4 µM | 2 µM | 4.41 µM |
